How the values were obtained:
[1] = UV/visible absorbance spectra in acetonitrile; type: physicochemical; settings: for molar absorptivity: 0.01 mM solutions in HPLC grade acetonitrile; for λabs (absorbance maxima): Measured in CAN
Experimental: (§1) All chemicals were obtained from Alfa Aesar, Oakwood Chemical, Ark Pharm, ThermoFisher Scientific, and Sigma-Aldrich. They were used without further purification. Flash chromatography was performed using a Biotage Horizon with silica gel (SiliaFlash P60) purchased from SiliCycle. ^1H and ^13C NMR spectra were gathered on a Bruker DRX-400 in either DMSO-d6 or CDCl3. High-resolution mass spectra were measured using a ThermoScientific Q Exactive Orbitrap equipped with a Nano ESI ionization source. Absorption spectra were recorded using a Shimazdu UV-1800 UV-Vis spectrophotometer using samples contained in 10×10 mm quartz cell at a concentration of 0.01 mM. Fluorescence spectra were gathered on a Shuimazdu RF-5301 PC in a 10×10 mm quartz cuvette.
(§2) The two dyes, upon their successful synthesis and isolation, had their photophysical data gathered beginning with absorbance, which was measured through the visible and ultraviolet region. Absorbance spectra were gathered using 0.01 mM solutions of the respective compound in HPLC grade acetonitrile. The spectra are nearly identical. This was of no surprise as the chromophore is the same on both molecules; however, 9 has a more substantial absorbance than 4 with a respective molar absorptivity of 66,000 M^−1cm^−1 and 51,700 M^−1 cm^−1. The absorbance determination was followed by the fluorescence emission and excitation spectra being gathered using solutions where the absorbance of the respective compound was 0.041 at 250 nm in acetonitrile (FIG. 1). This was done to save material as the same solutions were then used to determine the fluorescent quantum yield. The excitation spectra of 4 and 9 followed the same pattern, though the two were slightly offset from one another when overlaid with respect to the x-axis.

HeLa cells [2] = assay: Fluorescence imaging of HeLa cells with CellMask Orange co-stain (colocalization); type: cell-based; settings: for cellular localization: HeLa cells co-stained with CellMask Orange, 10 minutes; for Pearson correlation coefficient with CellMask Orange: HeLa cells, 10 minutes incubation, single cell image, DAPI vs Cy-5 filter sets
Experimental: (§3) All images were captured with a Leica DM 400 B microscope with a DFC3000G camera (Leica Microsystems, Germany) and 63× oil immersion or 40× lenses. HeLa cells were staged according to the aforementioned methods. Leica LASX Core Software (Leica Microsystems, Germany) was used to acquire the images. All images were processed using ImageJ. The Pearson correlation coefficient was calculated using the image of a single cell using an ImageJ plugin called Colocalization Finder by Christophe Laummonerie and Jerome Mutterer of Institut de Biologie Moleculaire des Plantes.
To further optimize staining and understand the localization of the dyes in HeLa cells, a co-stain was introduced to the cells with the dyes while also utilizing a shorter incubation time. Sterile glass poly-D-lysine coated #1.5 cover slips (NeuVitro), pre-incubated with culture medium, were placed in sterile 6-well plates. A single cell suspension of the HeLa (cervical cancer cells) cell line was prepared at 5×10^4 cells ml-1 in the appropriate medium. Volumes of 2.0 mL were pipetted into each of the wells containing the coverslips. The 6-well plate was left overnight at 37.0° C. in a 5.0% CO2 incubator. Following the overnight incubation, the plate was aspirated and PBS, containing the CellMask Orange (ThermoFischer Scientific) (at 1000× dilution with 0.10% DMSO) in a volume of 1.8 mL, was gently pipetted onto the cell monolayers attached to the glass cover slips. To the CellMask doped PBS 200 μl of 4 or 9 at 50 μM was added to the respective well. Cells on the cover slips were exposed to the dye for approximately 10 minutes. Cells were washed with PBS and treated with 4.0% paraformaldehyde solution prepared in PBS, incubated for 30 minutes at room temperature for full fixation. Three washes with 1 ml of PBS were completed to ensure excess solution was rinsed away. Glass cover slips were removed and mounted on slides with ProLong Gold Antifade Mountant (ThermoFisher Scientific). The specimen was dried for several minutes and sealed with clear nail polish before visualized under a microscope.
The modest modification came in two parts; the PBS used to replace the media was now doped with a 1000× dilution of CellMask Orange (plasma membrane dye) and the incubation time for the co-stain and dyes was shortened to 10 minutes. These subtle modifications were done to determine if the dyes, 4 and 9, could be used with short incubation periods and to follow the manufacture's staining instructions for CellMask Orange. […] CellMask Orange is a known dye which readily localizes in the plasma membrane. […] The overlap was quantified using a Pearson correlation coefficient calculation with the Colocalization Finder plugin for ImageJ using a single cell image cropped from the images. […]

HeLa cells [3] = assay: Fluorescence imaging of HeLa cells without co-stain; type: cell-based; settings: 5.0 uM dye, approximately 2 hours, no co-stain
Experimental: as §3
Sterile glass poly-D-lysine coated #1.5 cover slips (NeuVitro), pre-incubated with culture medium, were placed in sterile 6-well plates. A single cell suspension of the HeLa (cervical cancer cell) cell line was prepared at 5×10^4 cells mL^−1 in the appropriate medium. Volumes of 2.0 mL were pipetted into each of the wells containing the coverslips. The 6-well plate was left overnight at 37.0° C. in a 5.0% CO2 incubator. Following the overnight incubation, the plate was aspirated dry and then PBS, containing the drug (at 5.0 uM and 0.10% DMSO) in a volume of 2.0 mL, was gently pipetted onto the cell monolayers attached to the glass cover slips. Cells on the cover slips were exposed to the dye for approximately 2 hours in the incubator at 37.0° C. in a 5.0% CO2. […]

[4] = Fluorescence excitation/emission spectra and fluorescent quantum yield (single point method, naphthalene standard); type: physicochemical; settings: for λex (excitation maxima): Measured in CAN; for λem (emission maxima) / φ (fluorescent quantum yield, single point method): Measured in CAN (acetonitrile); for φ (fluorescent quantum yield, single point method): naphthalene standard, absorbance 0.041 at 250 nm
Experimental: as §1, §2
The fluorescent quantum yield was then determined by the single point method with Eq. 1.
Naphthalene was used as the standard where it was also made into a solution with acetonitrile at a concentration which allowed the absorbance to be 0.041 at 250 nm. The fluorescent quantum yields of 4 and 9 were determined to be 0.40 and 0.67, respectively.

HeLa cells [5] = assay: Metabolic proliferation (MTS) assay, toxicity in HeLa cells; type: cell-based
Experimental: HeLa cells were cultured in RPMI (ThermoFisher) supplemented with 10% FBS (ThermoFisher) and 1% penicillin-streptomycin (ThermoFisher 10000 U/mL). Cells (5000 cells/well in 100 μL) were plated in a 96-well culture plate (Greiner) and incubated for […]. Fifty microliters of the compound dissolved in complete media (final DMSO concentration 1%) at final concentrations of 100 μM, 10 μM, 1 μM, 100 nM, 10 nM, and 1 nM were added to the appropriate wells. After incubation of the cells at 37° C. in a humidified atmosphere of 5% CO2 for 120 h, the cells were stained and incubated with MTS reagent (Promega) for 2 h to determine cell viability. The absorbance of each well was taken at 490 nm using a multimode plate reader (FlexStation 3, Molecular Devices, San Diego, Calif.). GraphPad Prism was used to analyze data to determine the percent viability. […] Quadruplicate measurements were performed for each compound.
The toxicity of 4 and 9 was determined in HeLa cells. The HeLa cells were treated with concentrations of the respective dye varying between 1 nm and 100 μM for 72 hours.

[6] = 100 μM, 72 hours (FIG. 4: 120 h)
[7] = concentrations needed for standard imaging protocols (range 1 nm to 100 μM), 72 hours

log εmax (maximum molar extinction coefficient) [1] [M^−1 cm^−1] | molar absorptivity [1] | λabs (absorbance maxima) [1] [nm] | Stokes Shift [4] [nm] | λex (excitation maxima) [4] [nm] | λem (emission maxima) [4] [nm] | φ (fluorescent quantum yield, single point method) [4] | Compound | cellular localization (HeLa cells [2]) | Pearson correlation coefficient with CellMask Orange (HeLa cells [2]) | distribution of emission in the cell (HeLa cells [3]) | toxicity (HeLa cells [5]; [6]) | toxicity (HeLa cells [5]; [7])
3.81 | 66,000 M^−1cm^−1 | 247 | 38 | 248 | 357 | 0.67 | CCCCCCCCc1ccc2c(c1)-c1cc(CCCC(=O)O)ccc1S2(=O)=O [Compound 9, 4-(8-octyl-5,5-dioxidodibenzo[b,d]thiophen-2-yl)butanoic acid] | localize in the plasma membrane | 0.81 | more extranuclear emission | display toxicity | neither dye displayed toxicity
3.71 | 51,700 M^−1cm^−1 | 244 | 38 | 244 | 359 | 0.4 | O=C(O)CCCc1ccc2c(c1)-c1ccccc1S2(=O)=O [Compound 4, 4-(5,5-dioxidodibenzo[b,d]thiophen-2-yl)butanoic acid] | localize in the plasma membrane | 0.66 | stronger emission from the center of the cell | display toxicity | neither dye displayed toxicity

From patent publication US11952360B2, “Dibenzothiophene compounds” (Saint Louis University, priority 2019, dated 2024)
